Assay [1] deals with PD-1/PD-L1 (Homo sapiens, UniProt Q9NZQ7). The experiment in a line: PD-1/PD-L1 biochemical protein-protein interaction assay (ALPHA). The format is binding. To be noted: 0.3 nM His tagged PD-L1, 2.5 nM biotinylated Fc-PD-1, 60 minutes at 25° C., read-out: IC50 PD-L1-PD-1 Alpha IC50-mono PD-L1-fcP-D1. Put shortly: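 IC50 values derive from four-parameter fits of ALPHA signal decrease. Assay: 0.3 nM His-tagged PD-L1 with 2.5 nM biotinylated Fc-PD-1, Hepes pH 7.4 with 0.005% Tween 20 and 0.01% BSA, 60 min at 25° C, then anti-His acceptor and streptavidin donor beads.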

Assay [2] addresses T1, PD-1/PD-L1 interaction (Homo sapiens, UniProt Q9NZQ7).
T1 construct: expressed in transfected cells; host or cells: CHO cells (aAPC-PD-L1) co-cultured with Jurkat cells overexpressing PD-1 and an NFAT-luciferase reporter
Briefly: PD-1/PD-L1 NFAT reporter co-culture assay. To be noted: Jurkat PD-1 NFAT-luciferase cells co-cultured with aAPC-PD-L1 CHO cells, 6 hrs at 37° C.; read-out: EC50 NFAT Luciferase. The format is cell-based. Put shortly: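 First, CHO cells displaying anti-CD3 antibody and PD-L1 were plated overnight. Next, compound-treated PD-1 Jurkat NFAT-luciferase reporter cells in 2% FBS RPMI were added for 6 h at 37 °C. Finally, ONE-Glo luminescence was read and EC50 values fitted with a four-parameter equation.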

Assay [3] has as its target T2, interaction between the recombinant extracellular domain (ECD) of PD-1 and native cell-bound PD-L1 (Homo sapiens, UniProt Q9NZQ7).
T2 construct: expressed in transfected cells
Briefly: CHO/PD-L1 cell capture assay. Format: cell-based. The conditions noted are these: CHO cells overexpressing PD-L1, pre-incubated 1 hr with compound, captured on biotinylated Fc-PD-1 coated plates, 75 min at room temperature. In outline: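 EC50 values came from four-parameter fits of counts of Draq5-stained CHO-PD-L1 cells retained on plate-bound biotinylated Fc-PD-1 ECD, enumerated by high-content imaging. Cells in PBS pH 7.4 with EDTA and 2% BSA had 1 hr compound pre-incubation, then 75 min capture at room temperature.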

Assay [4] addresses T3, PD-L1 (Homo sapiens, UniProt Q9NZQ7).
T3 construct: determine if they can specifically dimerize the extracellular domains of PD-L1
The experiment in a line: PD-L1/PD-L1 dimerization biochemical protein-protein interaction assay (ALPHA). To be noted: compound-induced PD-L1 dimerization, head prints '1 nM' (0.5 nM His-tagged PD-L1 and 0.5 nM FLAG-tagged PD-L1), read-out: AC50 PDL1 Dimer Alpha 1 nM. Format: binding. In outline:
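After 2 h at 25 °C with compound, His- and FLAG-tagged PD-L1 ECDs (each 0.5 nM final; 25 mM Hepes pH 7.4, 150 mM NaCl) were detected by sequential anti-His acceptor and anti-FLAG donor bead incubations. Dose-response curves fitted to four-parameter equation for AC50.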

The structures appear in SMILES notation.

T1 sequence (Q9NZQ7 19-290): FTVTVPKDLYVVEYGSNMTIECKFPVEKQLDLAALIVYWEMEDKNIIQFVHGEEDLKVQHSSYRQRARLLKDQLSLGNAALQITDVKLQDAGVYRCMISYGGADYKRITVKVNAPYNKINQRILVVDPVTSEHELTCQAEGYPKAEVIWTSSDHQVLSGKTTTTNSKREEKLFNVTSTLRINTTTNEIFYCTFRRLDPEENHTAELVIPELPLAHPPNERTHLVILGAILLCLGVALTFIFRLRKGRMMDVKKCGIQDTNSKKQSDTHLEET
T2 sequence (Q9NZQ7 19-290): as above
T3 sequence (Q9NZQ7 19-238 limits assumed): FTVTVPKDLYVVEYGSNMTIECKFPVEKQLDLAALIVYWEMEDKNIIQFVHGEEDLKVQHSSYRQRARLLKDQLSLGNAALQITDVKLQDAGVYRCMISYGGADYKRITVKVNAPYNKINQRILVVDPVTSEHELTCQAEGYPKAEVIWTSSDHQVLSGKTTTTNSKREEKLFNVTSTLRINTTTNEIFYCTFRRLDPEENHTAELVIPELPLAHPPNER
T3 sequence (Q9NZQ7 19-238 limits assumed): as above
Sequence of PD-1/PD-L1 (Q9NZQ7 19-238 limits assumed): as above

Broadly, the IC50 is the point on the concentration scale where inhibition reaches its midpoint. One may read the EC50 as the concentration giving half of the maximal effect. Broadly, the AC50 is the concentration at which the activity in the assay is half-maximal. `Cc1c(COc2nc(OCC3COC3)c(CNC[C@@H](O)CC(=O)O)cc2Br)cccc1-c1cccc(COc2nc(OCC3COC3)c(CNC[C@@H](O)CC(=O)O)cc2Br)c1C` [Example 132, (3S,3′S)-4,4′-((((((2,2′-dimethyl-[1,1′-biphenyl]-3,3′-diyl)bis(methylene))bis(oxy))bis(5-bromo-2-(oxetan-3-ylmethoxy)pyridine-6,3-diyl))bis(methylene))bis(azanediyl))bis(3-hydroxybutanoic acid)]: the IC50 in assay [1] is 0.3 nM. The EC50 is 391 nM in assay [2] and 194 nM in assay [3]. For the same molecule, the AC50 in assay [4] came out at 279 nM.
The like results for `Cc1c(COc2cc(OCc3cncc(C#N)c3)c(CNC[C@H](O)CC(=O)O)cc2Cl)cccc1-c1cccc(COc2cc(OCc3cncc(C#N)c3)c(CNC[C@H](O)CC(=O)O)cc2Cl)c1C` [Example 162, (3R,3′R)-4,4′-((((((2,2′-dimethyl-[1,1′-biphenyl]-3,3′-diyl)bis(methylene))bis(oxy))bis(5-chloro-2-((5-cyanopyridin-3-yl)methoxy)-4,1-phenylene))bis(methylene))bis(azanediyl))bis(3-hydroxybutanoic acid)] were, in that order, 0.2 nM, 160 nM, 263 nM and 236 nM.
The like results for `COc1nc(OCc2cccc(-c3cccc(COc4nc(OC)c(CNC[C@@H](O)C(=O)O)cc4Cl)c3C)c2C)c(Cl)cc1CNC[C@@H](O)C(=O)O` [Example 167, (2R,2′R)-3,3′-((((((2,2′-dimethyl-[1,1′-biphenyl]-3,3′-diyl)bis(methylene))bis(oxy))bis(5-chloro-2-methoxypyridine-6,3-diyl))bis(methylene))bis(azanediyl))bis(2-hydroxypropanoic acid)] were, in that order, 2.2 nM, 109 nM, 62.3 nM and at least 10000 nM.
For the molecule `COc1nc(OCc2cccc(-c3cccc(COc4nc(OC)c(CNCC(=O)O)cc4Cl)c3C)c2C)c(Cl)cc1CNCC(=O)O` [Example 178, 2,2′-((((((2,2′-dimethyl-[1,1′-biphenyl]-3,3′-diyl)bis(methylene))bis(oxy))bis(5-chloro-2-methoxypyridine-6,3-diyl))bis(methylene))bis(azanediyl))diacetic acid], the half-inhibitory concentration (IC50) in assay [1] is 0.2 nM. Besides, the values for the EC50 in assay [2] and in assay [3] were 115 nM and 71.6 nM, respectively. Moreover, the AC50 in assay [4] was at least 10000 nM.
Turning to `Cc1c(COc2cc(OCc3cncc(C#N)c3)c(CNC[C@H](O)C(=O)O)cc2Cl)cccc1-c1cccc(COc2cc(OCc3cncc(C#N)c3)c(CNC[C@H](O)C(=O)O)cc2Cl)c1C` [Example 213, (2S,2′S)-3,3′-((((((2,2′-dimethyl-[1,1′-biphenyl]-3,3′-diyl)bis(methylene))bis(oxy))bis(5-chloro-2-((5-cyanopyridin-3-yl)methoxy)-4,1-phenylene))bis(methylene))bis(azanediyl))bis(2-hydroxypropanoic acid)], the IC50 in assay [1] came to 1.6 nM. The figures for the concentration for a half-maximal effect (EC50) in assay [2] and in assay [3] were 182 nM and 165 nM, respectively. Further, the AC50 in assay [4] amounted to 255 nM.
The corresponding values for `COc1cc(OCc2cccc(-c3cccc(COc4cc(OC)c(CNC[C@@H](O)CC(=O)O)cc4Cl)c3C)c2C)c(Cl)cc1CNC[C@@H](O)CC(=O)O` [Example 214, (3S,3′S)-4,4′-((((((2,2′-dimethyl-[1,1′-biphenyl]-3,3′-diyl)bis(methylene))bis(oxy))bis(5-chloro-2-methoxy-4,1-phenylene))bis(methylene))bis(azanediyl))bis(3-hydroxybutanoic acid)] are 0.2 nM, 172 nM, 22.3 nM and 188 nM.
The like results for `Cc1c(COc2nc(OCc3cncc(C#N)c3)c(CNC[C@@H](O)CC(=O)O)cc2Br)cccc1-c1cccc(COc2nc(OCc3cncc(C#N)c3)c(CNC[C@@H](O)CC(=O)O)cc2Br)c1C` [Example 240, (3S,3′S)-4,4′-((((((2,2′-dimethyl-[1,1′-biphenyl]-3,3′-diyl)bis(methylene))bis(oxy))bis(5-bromo-2-((5-cyanopyridin-3-yl)methoxy)pyridine-6,3-diyl))bis(methylene))bis(azanediyl))bis(3-hydroxybutanoic acid)] were, in that order, 0.4 nM, 108 nM, 217 nM and 367 nM.

(Values after patent US12590062B2, “PD-1/PD-L1 inhibitors” (Gilead Sciences, Inc., priority 2017, dated 2026).)
